Measurements as given in PMC9063426, “MAP kinases differentially bind and phosphorylate NOS3 via two unique NOS3 sites” (FEBS Open Bio, 2022).
Entries after “also recorded” stand apart in the source; their conditions may differ. Values belong to the compound of their own block, whether it stands above or below them. Where a SMILES comes first, the peptide text is derived from it. Where no end group is shown, it is not given here.

Assays:
NOS3 [1] = assay: NOS3 phosphorylation status in HMEC-1 cells; format: cell-based, human; conditions: data not shown
Protocol: Human microvascular endothelial cells (HMEC‐1) (CRL‐3243, ATCC) were cultured in MCDB131 medium. HMEC‐1 cells were maintained as described by the ATCC in MCDB131 supplemented with 10% FBS, 1 µg·mL^−1 Hydrocortisone, 10 mM Glutamine, and 10 ng·mL^−1 Epidermal Growth Factor under an atmosphere of 5% CO2 at 37 °C.

JNK1α1 = molecular target: T1, JNK1α1 (Homo sapiens, UniProt P45983); assay: BLI binding of biotinylated NOS3 peptides to JNK1α1; conditions: for Kd / koff / kon: BLI, global one-state fit; for Kd: inactive (unphosphorylated) JNK1α1 31-1000 nM, biotinylated peptide ligand, 25 °C, PBS, 10% glycerol, 0.005% tween, 1 mM DTT; for koff / kon: inactive JNK1α1, 25 °C, PBS buffer; for binding of phosphopeptide: BLI sensorgram, kinase analyte JNK1α1
T1 construct: GST; host or cells: E. coli BL21(DE3) pLysS
Protocol: (§1) Biolayer interferometry (BLI) experiments were performed on a FortéBio (Menlo Park, CA) Octet QK biosensor using streptavidin (SA) sensors. Assays were performed in opaque 96‐well microplates at 25 °C. All volumes were 200 μL. Active GST‐JNK1α1 (SignalChem) was biotinylated by amine crosslinking to NHS‐LC‐LC‐biotin (succinimidyl‐6‐[biotinamido]‐6‐hexanamidohexanoate) (Thermo Fisher, Waltham, MA, USA). Reactions were performed at a 5 : 1 molar ratio of biotin to protein for 30 min at room temperature followed by separation of protein from free biotin by passage over a desalting column. Biotinylated JNK1α1 was loaded onto sensors for 300 s, which was sufficient to saturate them. Baseline was established by dipping sensors into binding buffer (50 mM Tris, pH 7.4, 10 mM NaCl, 10% glycerol, 0.01% Tween‐20) prior to moving sensors to wells containing varying concentrations of serially diluted NOS3 in the same buffer. Association was measured for 300 s, after which sensors were moved to wells containing buffer only and dissociation was monitored for another 300 s. Raw data were normalized for baseline drift by subtracting signal from a ligand‐saturated sensor exposed to buffer only throughout the experiment and then iteratively fit to a one‐state global association‐then‐dissociation binding model using GRAPHPAD Prism. Total binding was used for analysis as nonspecific binding measured by exposing sensors without ligand to analyte was negligible at all NOS3 concentrations used; that is, total binding was effectively specific binding due to very low nonspecific binding.
(§2) For peptide binding experiments, N‐terminally biotinylated peptides (Biomatik) (Table 1) in PBS with 10% glycerol, 0.005% tween, and 1 mM DTT were loaded onto SA sensors as above. After establishing baseline, sensors were exposed to serial dilutions of analyte MAP kinases ranging from 31 to 1000 nM. Peptide experiments were performed using parameters identical to the protein ligand experiments excepting the buffer was PBS with 10% glycerol, 0.005% tween, and 1 mM DTT throughout.
(§3) We tested both hypothesized interaction sites and the impact of nearby phosphorylation sites using: (a) a nonphosphorylated peptide corresponding to the putative NtMAP site (Fig. 1); (b) the identical peptide with S114 phosphorylated; (c) a nonphosphorylated peptide corresponding to the AI loop site; and (d) an identical peptide phosphorylated at the position corresponding to S633. The resultant sensorgrams are shown in Fig. 4 fit to global one‐state binding models to determine binding parameters. While there are complexities present in the data (see Discussion), a one‐state models fit very well to all peptide‐kinase curves. All three kinases bound both unphosphorylated peptides with submicromolar affinity that in most cases approximated the affinity observed for full‐length NOS3 reported above and in our prior report.

ERK2 = molecular target: T2, ERK2 (Rattus norvegicus, UniProt P63086); assay: BLI binding of biotinylated NOS3 peptides to ERK2; conditions: for Kd / koff / kon: BLI, global one-state fit; for Kd: inactive (unphosphorylated) ERK2 31-1000 nM, biotinylated peptide ligand, 25 °C, PBS, 10% glycerol, 0.005% tween, 1 mM DTT; for koff / kon: inactive ERK2, 25 °C, PBS buffer; for binding of phosphopeptide: BLI sensorgram, kinase analyte ERK2
T2 construct: His; host or cells: E. coli BL21(DE3) pLysS
Protocol: as §1, §2, §3

p38α = molecular target: T3, p38α (Homo sapiens, UniProt Q16539); assay: BLI binding of biotinylated NOS3 peptides to p38α; conditions: for koff / kon: BLI, inactive p38α, 25 °C, PBS buffer, global one-state fit; for binding of phosphopeptide: BLI sensorgram, kinase analyte p38α
T3 construct: His; made in house; host or cells: E. coli BL21(DE3) pLysS
Protocol: as §1, §2, §3

NOS3 [2] = conditions: full-length NOS3; previously reported; ref [4]; cited from earlier work
Text: While there is substantial nonspecific binding inherent in the NOS1 sample, it is quite clear that there is no observable specific binding. […] This was not surprising since others have qualitatively shown an interaction between NOS3 and JNK [10] and the MAP kinases have similarities in the requirements of binding to activators and substrates. Lack of binding to NOS1 by all three MAP kinases examined thus far strengthens the interpretation that NOS3 is a node for MAP kinase signaling, while NOS1 and NOS2 are not.

NOS3 [3] = assay: In vitro kinase assay with NOS3, phospho-specific immunoblotting; format: biochemical, human; conditions: active kinases with NOS3, 5 and 60 min; for phosphorylation of NOS3 at S114: immunoblot with anti-pS114; for phosphorylation of NOS3 at S600: immunoblot with anti-pS600
Protocol: (§4) Active (HIS‐NOS3) was incubated alone or with individual kinases (ERK2, p38α, JNK1α1, and PKA) in 100 µL reaction buffer (20 mM HEPES, 0.5 mM DTT, 5 mM MgCl2, 0.5 mM ATP, and 10% glycerol at a pH of 7.4). The reactions were performed at 22‐25 °C for up to 1 h, and for the examination of nitric oxide activity, samples were incubated on ice for the immediate detection of NO via the oxyhemoglobin to methemoglobin assay (see below). For immunoblotting analysis to examine phosphorylation, kinase samples were quenched with 2× sample buffer spiked with 25 mM DTT and heated to 95 °C for 5 min. Boiled samples (at equal volumes) were electrophoresed and transferred to PDVF for immunoblot staining.
All samples were loaded at equal volumes on 3–8% gradient tris‐acetate gels. All gels were transferred to PVDF membranes and transferred for either 2 h at 40V or for 20V overnight. Membranes were blocked with one block (Li‐Cor Biosciences) for 30 m and incubated with respective antibodies (at manufacturers recommend concentrations for immunoblotting, 1 : 500 for the anti‐pS600‐NOS3) overnight at 4 °C. Blots were brought to RT for 30 m and washed 3× with 1X TBST for 10 m, probed with a fluorometric secondary antibody (Li‐Cor IRDye®) for 1 h, and washed before visualizing with a Li‐Cor Odyssey.

NOS3 [4] = assay: Oxyhemoglobin assay of NO production by kinase-treated NOS3; format: biochemical, human; conditions: oxyHb assay, 2.5 µM NOS3 with ERK2 14 nM (N = 10), p38α 14 nM (N = 4), JNK1α1-GST 63 nM (N = 3) or PKA 14 nM (N = 4), 30 min; versus untreated NOS3
Protocol: as §4
The oxyhemoglobin assay (oxyHb assay) is a spectroscopic method that measures the oxidative reaction of oxyhemoglobin at 421 nm (oxyHb) and methemoglobin (metHb) at 401 nm. Kinase assay reactions quenched on ice were used to measure NO synthesis and consumption. All oxyHb reactions were performed at 25 °C in a BioTek 96‐well UV‐visible spectrophotometer. Each reaction (100 µL total volume) was mixed with 40 µL of reaction buffer (1 μM FAD, 1 μM FMN, 10% glycerol, 12 nM BH4, 100 μM L‐arginine, 10 mM Tris/HCl, pH 7.5 at 25°, 250 μM CaCl2, 0.20 mg·mL^−1 BSA, 0.31 mg Hemoglobin, 7–10 U Superoxide Dismutase, 7–10 U Catalase, and 17 μg Calmodulin) and up to 40 µL (6–10 µg) of phosphorylated NOS3. Absorbance at 401 nm and 421 nm were read for 1 m at 15‐s intervals. To initiate the reaction, 20 µL of 200 mM NADPH reconstituted in Tris/HCl (1.4 M pH 7.5 at room temperature) was added. Measurements were recorded for 10 min at 15‐s intervals.
To calculate NOS3 activity, the change in absorbance/unit time was divided by the extinction coefficient (ε401‐421 = 77 200 M ^−1cm^−1 (ε401 = 38 600 M ^−1cm^−1)). This yielded NOS3 activity in units of molar change/unit time. Activity of kinase exposed NOS3 was compared to the NOS3 control activity (comparably treated NOS3 but not phosphorylated), and the data are presented as a percent of the control NOS3.

NOS1 = conditions: previous studies; ref [4]; cited from earlier work
Text: While there is substantial nonspecific binding inherent in the NOS1 sample, it is quite clear that there is no observable specific binding. […] The NOS1 isoform lacks the pentabasic sequence in the autoinhibitory loop that we hypothe ...

NOS3 [5] = conditions: earlier work, ERK2-treated NOS3; ref [6]; cited from earlier work
NOS3 [6] = conditions: previous report, different (SignalChem GST) ERK2, bovine NOS3; ref [6]; cited from earlier work
Protocol: Portions of the NOS3 phosphorylation assays were analyzed for nitric oxide production, using PKA as a positive control. […] It is important to note that we cannot interpret the degree of NOS3 phosphorylation, just that NOS3 was phosphorylate ...

NOS3 [7] = assay: TCSPC fluorescence lifetime, conformation of NOS3; conditions: FMN excited at 473 nm, detected at 525 nm
Protocol: Time‐resolved intensity decays were recorded using time‐correlated single‐photon counting fluorescence lifetime spectrometry (TCSPC FLT) to determine whether phosphorylation by JNK1α1 changes the conformation of NOS3.

T1 sequence (P45983 1-384 isoform P45983-2, species assumed): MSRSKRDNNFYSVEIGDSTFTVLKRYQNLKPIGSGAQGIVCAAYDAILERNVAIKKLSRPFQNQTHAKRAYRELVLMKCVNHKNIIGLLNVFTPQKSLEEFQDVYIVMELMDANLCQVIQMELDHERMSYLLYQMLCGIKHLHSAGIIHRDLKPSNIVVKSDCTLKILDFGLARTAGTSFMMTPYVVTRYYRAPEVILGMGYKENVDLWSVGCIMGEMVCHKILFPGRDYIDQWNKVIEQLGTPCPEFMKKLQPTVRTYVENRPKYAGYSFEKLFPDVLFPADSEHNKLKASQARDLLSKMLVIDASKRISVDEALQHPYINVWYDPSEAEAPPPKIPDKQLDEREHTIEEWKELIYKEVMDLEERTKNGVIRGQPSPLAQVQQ
T2 sequence (P63086 whole entry): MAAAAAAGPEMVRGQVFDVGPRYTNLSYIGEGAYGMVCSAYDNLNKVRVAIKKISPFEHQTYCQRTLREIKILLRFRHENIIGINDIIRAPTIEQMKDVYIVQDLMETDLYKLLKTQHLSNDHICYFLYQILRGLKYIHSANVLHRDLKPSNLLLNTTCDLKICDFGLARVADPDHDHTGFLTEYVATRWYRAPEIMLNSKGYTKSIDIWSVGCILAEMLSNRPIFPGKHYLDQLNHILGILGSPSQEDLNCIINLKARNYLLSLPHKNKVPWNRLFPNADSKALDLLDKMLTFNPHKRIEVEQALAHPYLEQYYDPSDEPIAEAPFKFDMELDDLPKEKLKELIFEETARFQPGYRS
T3 sequence (Q16539 whole entry): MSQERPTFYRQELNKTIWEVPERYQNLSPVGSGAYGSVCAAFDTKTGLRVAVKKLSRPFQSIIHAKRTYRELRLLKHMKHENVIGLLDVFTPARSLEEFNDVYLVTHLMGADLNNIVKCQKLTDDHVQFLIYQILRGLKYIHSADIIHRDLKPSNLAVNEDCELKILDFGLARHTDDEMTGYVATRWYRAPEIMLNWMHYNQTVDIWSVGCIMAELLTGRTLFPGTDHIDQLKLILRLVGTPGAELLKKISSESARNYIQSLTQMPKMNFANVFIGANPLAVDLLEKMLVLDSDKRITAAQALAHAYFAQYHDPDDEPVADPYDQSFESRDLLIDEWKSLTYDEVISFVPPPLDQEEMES

Compound: insulin: insulin, treatment of HMEC-1 cells
- NOS3 phosphorylation status (NOS3 [1]): altered NOS3 phosphorylation status

- Kd (JNK1α1): 38 nM
- koff (JNK1α1): 0.00054 s⁻¹
- kon (JNK1α1): 14100 M⁻¹ s⁻¹
- Kd (ERK2): 940 nM
- koff (ERK2): 0.00623 s⁻¹
- kon (ERK2): 6600 M⁻¹ s⁻¹
- koff (p38α): 0.00053 s⁻¹
- kon (p38α): 17300 M⁻¹ s⁻¹
Compound: CC(C)C[C@H](NC(=O)[C@H](CS)NC(=O)[C@H](CCCNC(=N)N)NC(=O)[C@H](CCCNC(=N)N)NC(=O)[C@@H]1CCCN1C(=O)[C@@H](NC(=O)[C@@H](N)CS)[C@@H](C)O)C(=O)NCC(=O)N[C@@H](CO)C(=O)N[C@@H](CC(C)C)C(=O)N[C@H](C(=O)N[C@@H](Cc1ccccc1)C(=O)N1CCC[C@H]1C(=O)N[C@@H](CCCNC(=N)N)C(=O)N[C@@H](CCCCN)C(=O)N[C@@H](CC(C)C)C(=O)N[C@@H](CCC(N)=O)C(=O)NCC(=O)N[C@@H](CCCNC(=N)N)C(=O)N1CCC[C@H]1C(=O)N[C@@H](CO)C(=O)N1CCC[C@H]1C(=O)NCC(=O)N1CCC[C@H]1C(=O)N1CCC[C@H]1C(=O)N[C@@H](C)C(=O)O)C(C)C [NtMAP] (H-CTPRRCLGSLVFPRKLQGRPSPGPPA-OH)

Compound: mitogen‐activated protein kinase 1 [ERK2]
- Kd (NOS3 [2]): 160 nM
- phosphorylation of NOS3 at S114 (NOS3 [3]): did not meaningfully phosphorylate S114 when compared to JNK1α1 and p38α
- phosphorylation of NOS3 at S600 (NOS3 [3]): at S600; also recorded: phosphorylates S600; also recorded: robust when compared to JNK1α1
- NO production / NOS3 activity (NOS3 [4]): do not significantly change NO production; also recorded: did not alter in vitro NOS3 activity
- binding to NOS1 (NOS1): no binding to NOS1
- conformation of NOS3 (NOS3 [5]): presented an altered conformation from untreated NOS3
- inhibition of NOS3 activity (NOS3 [6]): approximately 50%

Compound: cAMP‐dependent protein kinase [PKA, reference compound]
- NO production / NOS3 activity (NOS3 [4]): increased production of NO; also recorded: increased activity

- Kd (JNK1α1): 3 nM
- koff (JNK1α1): 0.00025 s⁻¹
- kon (JNK1α1): 84600 M⁻¹ s⁻¹
- Kd (ERK2): 170 nM
- koff (ERK2): 0.002 s⁻¹
- kon (ERK2): 12100 M⁻¹ s⁻¹
- koff (p38α): 0.00096 s⁻¹
- kon (p38α): 15900 M⁻¹ s⁻¹
Compound: YKIRFNSISCSDPLVSSWRRKRKESSNTDSA [AI]

- binding of phosphopeptide (JNK1α1): negligible binding
- binding of phosphopeptide (ERK2): negligible binding
- binding of phosphopeptide (p38α): negligible binding
Compound: CTPRRCLGSLVFPRKLQGRPS*PGPPA [NtMAP with phosphorylated S114, NtMAP peptide with S114 phosphorylated]

Compound: Epidermal Growth Factor [EGF]
- NOS3 phosphorylation status (NOS3 [1]): altered NOS3 phosphorylation status

Compound: mitogen‐activated protein kinase 14 [p38α]
- Kd (NOS3 [2]): 80 nM
- phosphorylation of NOS3 at S114 (NOS3 [3]): phosphorylates both residues; also recorded: easily detected when compared to ERK2
- phosphorylation of NOS3 at S600 (NOS3 [3]): phosphorylates both residues; also recorded: robust when compared to JNK1α1
- NO production / NOS3 activity (NOS3 [4]): do not significantly change NO production; also recorded: did not alter in vitro NOS3 activity
- binding to NOS1 (NOS1): no binding to NOS1

Compound: Calmodulin [reference compound]
- conformation of NOS3 (fluorescence decay) (NOS3 [7]; NOS3 holoenzyme): produced a change in conformation indicative of active NOS3
- conformation of JNK1α1-treated NOS3 (fluorescence decay) (NOS3 [7]; calmodulin on JNK1α1-treated NOS3): produced the same degree of shift (activation) in JNK1α1‐treated NOS3

- binding of phosphopeptide (JNK1α1): negligible binding
- binding of phosphopeptide (ERK2): negligible binding
- binding of phosphopeptide (p38α): negligible binding
Compound: YKIRFNSISCSDPLVSSWRRKRKES*SNTDSA [AI with phosphorylated S633, AI loop peptide phosphorylated at the position corresponding to S633]
